# Where two headings read alike, the source gives them in different places.
# Columns and labels:
# Type in all cases: in vivo
# [1] = tested on: sedge, umbrella (small-flower umbrella sedge, Cyperus difformis); test: Test C flooded paddy test: sedge, umbrella; conditions: Cyperus difformis, scale 0 to 100 (0 no effect, 100 complete control), read-out: Plant response rating, Sedge, Umbrella; for pest or weed control at 62 g/ha: 62 g ai/ha; for pest or weed control at 250 g/ha: 250 g ai/ha; for pest or weed control at 125 g/ha: 125 g ai/ha
# Outline: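 Rating: visual, 0–100 (100 = complete control), versus untreated controls after 13 to 15 greenhouse days. Treatment went into paddy water held at 3 cm over the soil, on plants grown to two leaves.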
# [2] = tested on: lambsquarters (Chenopodium album); test: Test D pre-/postemergence: lambsquarters
# Description: (§1) Seeds of plant species selected from bluegrass (annual bluegrass, Poa annua), blackgrass (Alopecurus myosuroides), canarygrass (Phalaris minor), chickweed (common chickweed, Stellaria media), galium (catchweed bedstraw, Galium aparine), bromegrass, downy (downy bromegrass, Bromus tectorum), field poppy (Papaver rhoeas), field violet (Viola arvensis), foxtail, green (green foxtail, Setaria viridis), deadnettle (henbit deadnettle, Lamium amplexicaule), ryegrass, Italian (Italian ryegrass, Lolium multiflorum), kochia (Kochia scoparia), lambsquarters (Chenopodium album), oilseed rape (Brassica napus), pigweed (Amaranthus retroflexus), Russian thistle (Salsola iberica), chamomile (scentless chamomile, Matricaria inodora), speedwell (bird's-eye speedwell, Veronica persica), barley, spring (spring barley, Hordeum vulgare), wheat, spring (spring wheat, Triticum aestivum), buckwheat, wild (wild buckwheat, Polygonum convolvulus), mustard, wild (wild mustard, Sinapis arvensis), oat, wild (wild oat, Avena fatua), radish, wild (wild radish, Raphanus raphanistrum), windgrass (Apera spica-venti), barley, winter (winter barley, Hordeum vulgare), and wheat, winter (winter wheat, Triticum aestivum) were planted into a silt loam soil and treated preemergence with test chemicals formulated in a non-phytotoxic solvent mixture which included a surfactant. At the same time, these same crop and weed species were planted in pots containing the planting medium comprising spaghnum peat moss, vermiculite, wetting agent and starter nutrients and treated with postemergence applications of the test chemicals formulated in the same manner. Plants ranged in height from 2 to 18 cm (1- to 4-leaf stage).
# (§2) Treated plants and controls were maintained in a controlled growth environment for 14 to 21 days after which time all species were compared to controls and visually evaluated. Plant response ratings, summarized in Table D, are based on a scale of 0 to 100 where 0 is no effect and 100 is complete control. A dash (-) response means no test result.
# [3] = tested on: speedwell (bird's-eye speedwell, Veronica persica); test: Test D pre-/postemergence: speedwell
# Description: as §1, §2
# [4] = tested on: radish, wild (wild radish, Raphanus raphanistrum); test: Test D pre-/postemergence: radish, wild
# Description: as §1, §2
# [5] = tested on: windgrass (Apera spica-venti); test: Test D pre-/postemergence: windgrass
# Description: as §1, §2
# [6] = tested on: arrowleaf sida (Sida rhombifolia); test: Test F pre-/postemergence: arrowleaf sida; conditions: Postemergence, scale 0 to 100
# Description: Seeds of plant species selected from corn (Zea mays), soybean (Glycine max), velvetleaf (Abutilon theophrasti), lambsquarters (Chenopodium album), poinsettia, wild (wild poinsettia, Euphorbia heterophylla), pigweed, palmer (palmer pigweed, Amaranthus palmeri), waterhemp (common waterhemp, Amaranthus rudis), surinam grass (Brachiaria decumbens), crabgrass, Brazil (Brazilian crabgrass, Digitaria horizontalis), panicum, fall (fall panicum Panicum dichotomiflorum), crabgrass, large (large crabgrass, Digitaria sanguinalis), foxtail, giant (giant foxtail, Setaria faberii), foxtail, green (green foxtail Setaria viridis), goosegrass (Eleusine indica), ragweed (common ragweed, Ambrosia elatior), barnyardgrass (Echinochloa crus-galli), sandbur (southern sandbur, Cenchrus echinatus), arrowleaf sida (Sida rhombifolia), ryegrass, Italian (Italian ryegrass, Lolium multiflorum), dayflower, VA (Virginia (VA) dayflower, Commelina virginica), field bindweed (Convolvulus arvensis), cocklebur (common cocklebur, Xanthium strumarium), morningglory (Ipomoea coccinea), nightshade (eastern black nightshade, Solanum ptycanthum), kochia (Kochia scoparia), nutsedge, yellow (yellow nutsedge, Cyperus esculentus), johnsongrass (Sorghum halepense), smartweed (ladysthumb smartweed, Polygonum persicaria), and beggarticks (hairy beggarticks, Bidens pilosa), were planted into a silt loam soil and treated preemergence with test chemicals formulated in a non-phytotoxic solvent mixture which included a surfactant. At the same time, plants selected from these crop and weed species and also pigweed (Amaranthus retroflexus), waterhemp_RES1 (ALS/Triazine resistant common waterhemp, Amaranthus rudis) and waterhemp_RES2 (ALS/HPPD resistant common waterhemp, Amaranthus rudis) were planted in pots containing a planting medium comprising spaghnum peat moss, vermiculite, wetting agent and starter nutrients treated with postemergence applications of some of the test chemicals formulated in the same manner. Plants ranged in height from 2 to 18 cm for postemergence treatments (1- to 4-leaf stage).
# as §2, with “greenhouse” for “controlled growth environment”, “days,” for “days”, “E,” for “D,”
# [7] = Flood (flooded paddy test), visual rating after 13 to 15 days
# [8] = Postemergence, 31 g ai/ha, scale 0 to 100 (0 no effect, 100 complete control)
# [9] = Postemergence, 62 g ai/ha, scale 0 to 100 (0 no effect, 100 complete control)
# [10] = Postemergence, 125 g ai/ha, scale 0 to 100, 0 no effect, 100 complete control
# [11] = Postemergence, 250 g ai/ha, scale 0 to 100 (0 no effect, 100 complete control)
# [12] = Preemergence, 31 g ai/ha, scale 0 to 100, 0 no effect, 100 complete control
# [13] = Preemergence, 62 g ai/ha, scale 0 to 100
# [14] = Preemergence, 125 g ai/ha, scale 0 to 100
# [15] = Preemergence, 250 g ai/ha, scale 0 to 100
# [16] = Postemergence, 16 g ai/ha, scale 0 to 100
# [17] = Postemergence, 31 g ai/ha, scale 0 to 100
# [18] = Preemergence, 16 g ai/ha, scale 0 to 100, 0 no effect, 100 complete control
smiles,measurement,setting,value
"Cc1nn(-c2ccc(C(F)(F)F)cc2)nc1Oc1csc(C(F)(F)F)c1 [Compound 1, 4-methyl-2-[4-(trifluoromethyl)phenyl]-5-[[5-(trifluoromethyl)-3-thienyl]oxy]-2H-1,2,3-triazole]",pest or weed control at 62 g/ha,[1]; [7],0%
same,pest or weed control at 250 g/ha,[1]; [7],0%
"FC(F)(F)COc1nn(-c2ccc(C(F)(F)F)cc2)nc1Cc1ccnc(C(F)(F)F)c1 [Compound 14, 4-[[5-(2,2,2-trifluoroethoxy)-2-[4-(trifluoromethyl)phenyl]-2H-1,2,3-triazol-4-yl]methyl]-2-(trifluoromethyl)pyridine]",pest or weed control at 62 g/ha,[1]; [7],40%
same,pest or weed control at 250 g/ha,[1]; [7],75%
same,Plant response rating: Lambsquarters,[2]; [8],80
same,Plant response rating: Lambsquarters,[2]; [9],80
same,Plant response rating: Lambsquarters,[2]; [10],100
same,Plant response rating: Lambsquarters,[2]; [11],100
same,"Plant response rating, Lambsquarters",[2]; [12],0
same,"Plant response rating, Lambsquarters",[2]; [13],40
same,"Plant response rating, Lambsquarters",[2]; [14],60
same,"Plant response rating, Lambsquarters",[2]; [15],75
same,Plant response rating: Speedwell,[3]; [8],100
same,Plant response rating: Speedwell,[3]; [9],100
same,Plant response rating: Speedwell,[3]; [10],100
same,Plant response rating: Speedwell,[3]; [11],100
same,"Plant response rating, Speedwell",[3]; [12],100
same,"Plant response rating, Speedwell",[3]; [13],100
same,"Plant response rating, Speedwell",[3]; [14],100
same,"Plant response rating, Speedwell",[3]; [15],100
same,"Plant response rating: Radish, Wild",[4]; [8],70
same,"Plant response rating: Radish, Wild",[4]; [9],85
same,"Plant response rating: Radish, Wild",[4]; [10],100
same,"Plant response rating: Radish, Wild",[4]; [11],100
same,"Plant response rating, Radish, Wild",[4]; [13],40
same,"Plant response rating, Radish, Wild",[4]; [14],100
same,"Plant response rating, Radish, Wild",[4]; [15],100
same,Plant response rating: Windgrass,[5]; [8],30
same,Plant response rating: Windgrass,[5]; [9],40
same,Plant response rating: Windgrass,[5]; [10],75
same,Plant response rating: Windgrass,[5]; [11],100
same,"Plant response rating, Windgrass",[5]; [12],10
same,"Plant response rating, Windgrass",[5]; [13],20
same,"Plant response rating, Windgrass",[5]; [14],40
same,"Plant response rating, Windgrass",[5]; [15],85
"COCc1nn(-c2ccc(C(F)(F)F)cc2)nc1Oc1cccc(OC(F)(F)F)c1 [Compound 115, 4-(methoxymethyl)-5-[3-(trifluoromethoxy)phenoxy]-2-[4-(trifluoromethyl)phenyl]-2H-1,2,3-triazole]",pest or weed control at 125 g/ha,[1]; [7],75%
same,pest or weed control at 250 g/ha,[1]; [7],80%
same,pest or weed control at 62 g/ha,[1]; Flood,70%
"FCc1nn(-c2ccc(C(F)(F)F)cc2)nc1Oc1cccc(OC(F)(F)F)c1 [Compound 116, 4-(fluoromethyl)-5-[3-(trifluoromethoxy)phenoxy]-2-[4-(trifluoromethyl)phenyl]-2H-1,2,3-triazole]",pest or weed control at 125 g/ha,[1]; [7],75%
same,pest or weed control at 250 g/ha,[1]; [7],85%
same,pest or weed control at 62 g/ha,[1]; Flood,60%
COc1nn(-c2ccc(C(F)(F)F)cc2)nc1Cc1ccnc(C(F)F)c1 [Compound 138],Plant response rating: Lambsquarters,[2]; [8],80
same,Plant response rating: Lambsquarters,[2]; [9],90
same,Plant response rating: Lambsquarters,[2]; [10],95
same,Plant response rating: Lambsquarters,[2]; [11],100
same,"Plant response rating, Lambsquarters",[2]; [16],70
same,Plant response rating: Speedwell,[3]; [8],80
same,Plant response rating: Speedwell,[3]; [9],90
same,Plant response rating: Speedwell,[3]; [10],98
same,Plant response rating: Speedwell,[3]; [11],100
same,"Plant response rating, Speedwell",[3]; [16],80
same,"Plant response rating: Radish, Wild",[4]; [8],80
same,"Plant response rating: Radish, Wild",[4]; [9],95
same,"Plant response rating: Radish, Wild",[4]; [10],100
same,"Plant response rating: Radish, Wild",[4]; [11],100
same,"Plant response rating, Radish, Wild",[4]; [16],80
same,Plant response rating: Windgrass,[5]; [9],50
same,Plant response rating: Windgrass,[5]; [10],60
same,Plant response rating: Windgrass,[5]; [11],90
same,"Plant response rating, Windgrass",[5]; [16],15
same,"Plant response rating, Windgrass",[5]; [17],30
Cc1nn(-c2ccnc(Cl)c2)nc1Cc1ccnc(C(F)(F)F)c1 [Compound 141],"Plant response rating, Arrowleaf Sida",[6]; 8 g ai/ha,40
same,"Plant response rating, Arrowleaf Sida",[6]; 16 g ai/ha,50
same,"Plant response rating, Arrowleaf Sida",[6]; 31 g ai/ha,60
same,"Plant response rating, Arrowleaf Sida",[6]; 62 g ai/ha,70
same,"Plant response rating, Arrowleaf Sida",[6]; 125 g ai/ha,75
Cc1nn(-c2ccc(F)c(C(F)(F)F)c2)nc1Cc1ccnc(C(F)(F)F)c1 [Compound 156],Plant response rating: Lambsquarters,[2]; [8],90
same,Plant response rating: Lambsquarters,[2]; [9],85
same,Plant response rating: Lambsquarters,[2]; [10],95
same,"Plant response rating, Lambsquarters",[2]; [16],85
same,"Plant response rating, Lambsquarters",[2]; [18],25
same,"Plant response rating, Lambsquarters",[2]; [12],30
same,"Plant response rating, Lambsquarters",[2]; [13],85
same,"Plant response rating, Lambsquarters",[2]; [14],100
same,"Plant response rating, Speedwell",[3]; [18],10
same,"Plant response rating, Speedwell",[3]; [12],100
same,"Plant response rating, Speedwell",[3]; [13],100
same,"Plant response rating, Speedwell",[3]; [14],100
same,"Plant response rating: Radish, Wild",[4]; [8],85
same,"Plant response rating: Radish, Wild",[4]; [9],100
same,"Plant response rating: Radish, Wild",[4]; [10],100
same,"Plant response rating, Radish, Wild",[4]; [16],65
same,"Plant response rating, Radish, Wild",[4]; [18],5
same,"Plant response rating, Radish, Wild",[4]; [12],10
same,"Plant response rating, Radish, Wild",[4]; [13],100
same,"Plant response rating, Radish, Wild",[4]; [14],100
same,Plant response rating: Windgrass,[5]; [9],70
same,Plant response rating: Windgrass,[5]; [10],80
same,"Plant response rating, Windgrass",[5]; [16],25
same,"Plant response rating, Windgrass",[5]; [17],50
same,"Plant response rating, Windgrass",[5]; [18],0
same,"Plant response rating, Windgrass",[5]; [12],10
same,"Plant response rating, Windgrass",[5]; [13],85
same,"Plant response rating, Windgrass",[5]; [14],100

# Reference: US9302999B2, “Substituted triazoles as herbicides” (E. I. DU PONT DE NEMOURS AND COMPANY, priority 2012, dated 2016)
